This note sets out measurements from ChEMBL document CHEMBL1122438, “2-Phenylpyrazolo[1,5-a]pyrimidin-7-ones. A new class of nonsteroidal antiinflammatory drugs devoid of ulcerogenic activity” (J Med Chem, 1983).

In data set [1] the test system is Rattus norvegicus. The data set is described as follows: Percent reduction of edema in rat on 23rd day after oral administration of 30 mg/kg in antiarthritis assay; i = Inactive. The format is functional, organism-based. On the set-up: dose 30 mg/kg. Conditions: at 30 mg/kg.
Data set [2] concerns Mus musculus. The data set can be described thus: Percent reduction of edema in mice 3h after oral administration of 30 mg/kg in carrageenan model. The format is functional.
The test system of data set [3] is Rattus norvegicus. The data set can be described thus: Percent reduction of edema in rat on 23rd day after oral administration of 20 mg/kg in antiarthritis assay; i = Inactive. The format is functional, organism-based. Further details: dose 20 mg/kg. Conditions: at 20 mg/kg.
Data set [4] concerns Mus musculus. The data set is described as follows: Percent reduction of edema in mice 3h after oral administration of 20 mg/kg in carrageenan model. The format is functional.
Data set [5] concerns Rattus norvegicus. The data set is described as follows: Percent reduction of edema in rat on 23rd day after oral administration of 20 mg/kg in antiarthritis assay. In kind it is functional.
The subject of data set [6] is Mus musculus. The data set is described as follows: Percent reduction of edema in mice 3h after oral administration of 300 mg/kg in carrageenan model. The format is functional.
Data set [7] relates to Rattus norvegicus. The data set can be described thus: Percent reduction of edema in rat on 23rd day after oral administration of 300 mg/kg in antiarthritis assay; i = Inactive. The format is functional, organism-based. Conditions: at 300 mg/kg. Further details: dose 300 mg/kg.
Data set [8] deals with Mus musculus. The data set can be described thus: Acute toxicity was evaluated as number of mice (tested=7) died after 72nd hour when 270 mg/kg is administered intraperitoneally. In kind it is organism-based. Further details: dose 270 mg/kg, route intraperitoneal. Conditions: in vivo, ip.
Data set [9] has as its system Rattus norvegicus. The data set is described as follows: Percent reduction of edema in rat on 23rd day after oral administration of 30 mg/kg in antiarthritis assay. In kind it is functional.
The test system of data set [10] is Mus musculus. The data set can be described thus: Acute toxicity was evaluated as number of mice (tested=7) died after 72nd hour when 280 mg/kg is administered intraperitoneally. In kind it is organism-based. Further details: dose 280 mg/kg, route intraperitoneal. Conditions: in vivo, ip.
For data set [11], the species on record is Rattus norvegicus. The data set is described as follows: Antiinflammatory activity in carrageenan model, activity is expressed as ED50 values. In kind it is functional.
The subject of data set [12] is Mus musculus. The data set can be described thus: Percent reduction of edema in mice 3h after oral administration of 17 mg/kg in carrageenan model. In kind it is functional.
The species entered for data set [13] is Rattus norvegicus. The data set can be described thus: Ulcer index of the compound. The format is functional.
Data set [14] deals with Mus musculus. The data set is described as follows: Analgesic activity evaluated by measuring % analgesic effect, after oral administration of 0.3 mg/kg in acetic acid writhing test. The format is functional. A general note: Writhing tests count abdominal constrictions after an irritant is injected.
The subject of data set [15] is Mus musculus. The data set is described as follows: Analgesic activity evaluated by measuring % analgesic effect, after oral administration of 30 mg/kg in acetic acid writhing test. The format is functional.
The test system of data set [16] is Rattus norvegicus. The data set is described as follows: Antiinflammatory activity evaluated by measuring % reduction of edema, 3h after oral administration of 100 mg/kg in carrageenan model. In kind it is functional.
The species named for data set [17] is Mus musculus. The data set is described as follows: Analgesic activity in acetic acid writhing test, activity is expressed as ED50 values. In kind it is functional.
Data set [18] has as its system Rattus norvegicus. The data set can be described thus: Antiinflammatory activity evaluated by measuring % reduction of edema, 3h after oral administration of 25 mg/kg in carrageenan model. In kind it is functional.
For data set [19], the system named is Mus musculus. The data set can be described thus: Analgesic activity evaluated by measuring % analgesic effect, after oral administration of 15 mg/kg in acetic acid writhing test. In kind it is functional.
The nature of data set [20]: Therapeutic index was expressed as LD50/ED50 carragreenin model. As to conditions: mouse; read-out: TI.
Data set [21] concerns Mus musculus. The data set is described as follows: Acute toxicity was evaluated as number of mice (tested=7) died after 72nd hour when 200 mg/kg is administered intraperitoneally. In kind it is organism-based. Further details: dose 200 mg/kg, route intraperitoneal. As to conditions: in vivo, ip.
The subject of data set [22] is Mus musculus. The data set can be described thus: Analgesic activity evaluated by measuring % analgesic effect, after oral administration of 5 mg/kg in acetic acid writhing test. The format is functional.
The nature of data set [23]: Toxic activity is expressed as LD50 values. The format is toxicity, organism-based. Conditions: mouse, in vivo.
Data set [24] deals with Mus musculus. The data set can be described thus: Acute toxicity was evaluated as number of mice (tested=7) died after 72nd hour when 250 mg/kg is administered intraperitoneally. In kind it is organism-based. As to conditions: in vivo, ip. Further details: dose 250 mg/kg, route intraperitoneal.
In data set [25] the test system is Mus musculus. The data set is described as follows: Acute toxicity was evaluated as number of mice (tested=7) died after 72nd hour when 260 mg/kg is administered intraperitoneally. In kind it is organism-based. Further details: dose 260 mg/kg, route intraperitoneal. Conditions: in vivo, ip.
The subject of data set [26] is Rattus norvegicus. The data set can be described thus: Antiinflammatory activity evaluated by measuring % reduction of edema, 3h after oral administration of 10 mg/kg in carrageenan model. In kind it is functional.

The source made the active and inactive calls. The rule behind the calls is not given here.

Consider `CCn1ccc(=O)n2nc(-c3ccccc3)c(N=O)c12`, for which the Reduction result with Rattus norvegicus [1] was “inactive”. Further, the Reduction with Mus musculus [2] is 7.03%.

`Cn1ccc(=O)n2nccc12`: the Reduction result in the data set on Rattus norvegicus [3] is “inactive”. For the same compound, in the data set on Mus musculus [4], the Reduction came to 0%.

With `CC(C)n1ccc(=O)n2nc(-c3ccccc3)cc12`, the Reduction result in the data set on Rattus norvegicus [3] was “inactive”. Also, in the data set on Mus musculus [4], the Reduction is 3.5%.

`CCCCn1ccc(=O)n2nc(-c3ccccc3)cc12`: the Reduction with Rattus norvegicus [5] is given as 59.8%; in the data set on Mus musculus [4], 26.6%.

Take `O=c1ccn(CCO)c2cc(-c3ccccc3)nn12`: the Reduction entry with Rattus norvegicus [1] was “inactive”. Moreover, the Reduction in the data set on Mus musculus [2] was found to be 16.5%.

For `CCn1ccc(=O)n2nc(C)cc12`, the Reduction entry with Rattus norvegicus [1] is “inactive”. In the data set on Mus musculus [2], this compound gave a Reduction of 7.3%.

The compound `Oc1ccnc2cc(-c3ccccc3)nn12` returned a Reduction in the data set on Mus musculus [6] of 27.3%. The Reduction entry in the data set on Rattus norvegicus [7] is “inactive”.

Consider `CCn1ccc(=O)n2nc(-c3ccccc3)c(SC#N)c12`, for which the Reduction result with Rattus norvegicus [1] was “inactive”. Also, in the data set on Mus musculus [2], the Reduction worked out at 42.2%.

As for `CCn1cc(Br)c(=O)n2nc(-c3ccccc3)c(Br)c12`, the Reduction result in the data set on Rattus norvegicus [1] is “inactive”. The compound also displayed a Reduction in the data set with Mus musculus [2] of 0%.

Take `CCn1ccc(=O)n2nc(-c3ccccc3)c(SSc3c(-c4ccccc4)nn4c(=O)ccn(CC)c34)c12`: the Reduction result in the data set with Rattus norvegicus [1] was “inactive”. For the same compound, the Reduction in the data set with Mus musculus [2] came to 37.5%.

`CCOC(Cn1ccc(=O)n2nc(-c3ccccc3)cc12)OCC`: the Reduction result in the data set on Rattus norvegicus [3] is “inactive”. Besides, the Reduction in the data set with Mus musculus [4] is 12.5%.

Consider `CCn1ccc(=O)n2nc(-c3ccccc3)cc12`, for which the Acute toxicity is 3 with Mus musculus [8]; 5 in the data set on Mus musculus [10]; 0 in the data set on Mus musculus [21]; 1 in the data set with Mus musculus [24]; 2 in the data set with Mus musculus [25]. For the same compound, the Reduction is reported as 42.7% in the data set with Rattus norvegicus [9]; 54.1% in the data set with Mus musculus [12]; 90.1% with Rattus norvegicus [16]; 69.8% with Rattus norvegicus [18]; 54.1% in the data set with Rattus norvegicus [26]. Besides, the ED50 turned out to be 7.3 mg/kg in the data set filed under Rattus norvegicus [11] and 9.86 mg/kg in the data set listed under Mus musculus [17]. For the same compound, the UI in the data set filed under Rattus norvegicus [13] is listed as 0.15. For the same compound, the Analgesic effect in the data set on Mus musculus [14] amounted to 20%; in the data set on Mus musculus [15], 84.3%; in the data set with Mus musculus [19], 69.3%; with Mus musculus [22] it was 24.5%. Besides, the selectivity ratio in data set [20] worked out at 37.1. Further, the LD50 in data set [23] stood at 271 mg/kg.

The ED50 is the dose that gives a 50% effect, or the effect in half of the subjects. In general, LD50 refers to the dose expected to kill half of the subjects tested. A high value points to a less toxic substance.
